Experimental data as given in US20220305012A1, “L[…] TREATING SLEEP ISSUES” (EISAI R&D MANAGEMENT CO., LTD., priority 2019, published 2022).

Legend:
Format in all cases: in vivo, human
[1] = test system: Subjects Having Insomnia Disorder; experiment: Example 2: return to sleep latency
[2] = test system: Subjects Having Insomnia Disorder; experiment: Example 2: postural stability, body sway upon awakening in morning
Source text: Subjects were provided with a sleep diary and trained on how to record entries. After subjects completed the sleep diary on 7 consecutive mornings, and provided that the subject was still eligible to participate in the study, they attended a second clinical meeting between 10 and 17 days before the randomization phase. The subject was then fitted with a polysomnogram and trained in how to complete the postural stability assessment and cognitive performance assessment battery. Subjects then underwent an 8-hour polysomnogram recording. Within 5 minutes of waking, the postural stability assessment and cognitive assessment battery were conducted on the subject.
Within 5 minutes of the subject's mean habitual bedtime, study drug was administered and an overnight polysomnogram recording was initiated. At completion of the recording the following morning (Day 2), postural stability and cognitive performance were assessed. On the Day 2 evening, subjects returned to the clinic and a blood sample was collected before administering study drug, and then study drug was administered within 5 minutes of the subject's mean habitual bedtime. Again, a polysomnogram recording was initiated. The next morning (Day 3), postural stability and cognitive performance were assessed. A blood sample was also collected.
On Day 29, subjects returned to the clinic. Study drug was administered within 5 minutes of the subject's mean habitual bedtime and a polysomnogram recording was conducted. On the following morning (Day 30), postural stability and cognitive performance were assessed. After 1.5 hours of waketime, subjects rated their morning sleepiness level.
(§1) On the evening of Day 30, subjects returned to the clinic. A pre-dose blood sample was collected and study drug was again administered within 5 minutes of the subject's mean habitual bedtime. A polysomnogram recording was initiated. The following morning (Day 31), postural stability and cognitive performance were assessed and a blood sample was obtained. The ISI, FSS, EQ-5D-3L and PGI-Insomnia were administered. Blood and urine samples were collected for routine safety assessment. An electrocardiogram was performed, and vital signs and weight were assessed. The eC-SSRS was then administered to the subject. At 1.5 hours after waketime, subjects rated their morning sleepiness level.
An exemplary additional secondary endpoint is the change from baseline on the postural stability test of mean units of body sway on Days 2 and 3 after administration of 5 mg or 10 mg of lemborexant compared to zolpidem.

[3] = test system: Subjects Having Insomnia Disorder; experiment: Example 2: Insomnia Severity Index Total Score (Items 1-7); conditions: for Insomnia Severity Total Score (Items 1-7), Change from Study Baseline, Mean (SD) / Insomnia Severity Total Score (Items 1-7), Change from Study Baseline, Median / Insomnia Severity Total Score (Items 1-7), Mean (SD) / Insomnia Severity Total Score (Items 1-7), Median: Day 31
Source text: As used herein, the term “Insomnia Severity Index”, abbreviated as “ISI”, is an index calculated using a 7-item, self-report questionnaire assessing the nature, severity, and impact of insomnia (see Bastien, C. H., et al. “Validation of the Insomnia Severity Index as an outcome measure for insomnia research.” Sleep Med. 2001; 2(4): 297-307). The questionnaire evaluates: (1) severity of sleep onset; (2) sleep maintenance; (3) early morning awakening problems; (4) sleep dissatisfaction; (5) interference caused by sleep difficulties with daytime functioning; (6) noticeability of sleep problems by others; and (7) distress caused by the sleep difficulties. A 5-point scale is used to rate each item (0=no problem to 4=very severe problem) yielding a total score from 0 to 28. Total ISI score (items (1)-(7)) and daytime functioning (items (4)-(7)) are analyzed separately.
On day 1 of the baseline period, subjects were admitted to the clinic and ISI, FSS, and EQ-5D-3L were administered. Blood and urine samples were collected for routine safety assessments, an ECG was performed, and vital signs and weight were assessed. The eC-SSRS was administered. Subjects who completed the baseline period and continued to meet the eligibility criteria were randomized and began the randomization phase.
as §1

[4] = test system: Subjects Having Insomnia Disorder; experiment: Example 2: subjective total sleep time (sTST), sleep diary
Source text: As used herein, the term “subjective total sleep time”, abbreviated as “sTST”, means the derived minutes of sleep from sleep onset until the time the subject stopped trying to sleep for the night. In some embodiments, sTST is derived from data entered in a subject's Sleep Diary.
In some embodiments, sleep diaries were used to assess sleep parameters reported by subjects (i.e., subjective assessments) including subjective sleep onset latency (sSOL), subjective sleep efficiency (sSE), subjective WASO (sWASO), and subjective total sleep time (sTST). Subjects were instructed to complete the Sleep Diary developed based on the consensus Sleep Diary as described in Carney et al., “The consensus sleep diary: standardizing prospective sleep self-monitoring,” Sleep 2012; 35(2):287-302. In some embodiments, the Sleep Diary was used to assess the subject's global perception of quality of sleep on the previous night with the following question: “How would you rate the quality of your sleep last night?” Subjects rated the quality of their sleep on a scale from 1 to 9, with 1 being extremely poor and 9 being extremely good. In some embodiments, the Sleep Diary was used to assess subjective ratings of morning sleepiness with the following question: “How alert/sleepy do you feel this morning?” Subjects rated their sleepiness/alertness level on a Likert scale from 1 to 9, with 1 being extremely sleepy and 9 being extremely alert.
sTST—subjective total sleep time: derived minutes of sleep from sleep onset until the time the subject stopped trying to sleep for the night.
The treatment period lasted for 31 days. Subjects were randomized in a double-blind manner and received placebo, a tablet containing 5 mg of lemborexant, a tablet containing 10 mg of lemborexant, or a tablet containing 6.25 mg of zolpidem ER.
Once home, the subject ingested study drug each night prior to bedtime and completed their sleep diary within 1 hour of waketime.

[5] = First 7 Nights of Treatment, Lemborexant 5 mg
[6] = First 7 Nights of Treatment, Lemborexant 10 mg
[7] = Last 7 Nights of Treatment, Lemborexant 5 mg
[8] = Last 7 Nights of Treatment, Lemborexant 10 mg
[9] = Days 30/31, Zolpidem ER 6.25 mg
[10] = First 7 Nights of Treatment, Zolpidem ER 6.25 mg
[11] = Last 7 Nights of Treatment, Zolpidem ER 6.25 mg

Structure (SMILES): Cc1ncc(OC[C@@]2(c3cccc(F)c3)C[C@H]2C(=O)Nc2ccc(F)cn2)c(C)n1 [Lemborexant, (1R,2S)-2-(((2,4-dimethylpyrimidin-5-yl)oxy)methyl)-2-(3-fluorophenyl)-N-(5-fluoropyridin-2-yl)cyclopropanecarboxamide]
- Return to Sleep Latency, LSM - Difference vs. Placebo ([1]; Lemborexant 5 mg): -22.5 min
- Return to Sleep Latency, Mean (SD) change from baseline ([1]; Lemborexant 5 mg): -22.8 min
- Return to Sleep Latency, Postdose ([1]; Lemborexant 5 mg): 18.1 min
- Return to Sleep Latency, LSM - Difference vs. Placebo ([1]; Lemborexant 10 mg): -28.7 min
- Return to Sleep Latency, Mean (SD) change from baseline ([1]; Lemborexant 10 mg): -28.7 min
- Return to Sleep Latency, Postdose ([1]; Lemborexant 10 mg): 12.1 min
- return to sleep latency ([1]; both doses, vs placebo and zolpidem (Table 28)): greater reduction in return to sleep latency than treatment with placebo and zolpidem
- Body Sway Upon Awakening in Morning, Change from Study Baseline, Mean (SD) ([2]; Days 2/3, Lemborexant 5 mg): −0.82 ⅓ degree angle of arc
- Body Sway Upon Awakening in Morning, Change from Study Baseline, Median ([2]; Days 2/3, Lemborexant 5 mg): −0.50 ⅓ degree angle of arc
- Body Sway Upon Awakening in Morning, Mean (SD) ([2]; Days 2/3, Lemborexant 5 mg): 25.73 ⅓ degree angle of arc
- Body Sway Upon Awakening in Morning, Median ([2]; Days 2/3, Lemborexant 5 mg): 21.00 ⅓ degree angle of arc
- Body Sway Upon Awakening in Morning, Change from Study Baseline, Mean (SD) ([2]; Days 2/3, Lemborexant 10 mg): 0.56 ⅓ degree angle of arc
- Body Sway Upon Awakening in Morning, Change from Study Baseline, Median ([2]; Days 2/3, Lemborexant 10 mg): 0.50 ⅓ degree angle of arc
- Body Sway Upon Awakening in Morning, Mean (SD) ([2]; Days 2/3, Lemborexant 10 mg): 24.36 ⅓ degree angle of arc
- Body Sway Upon Awakening in Morning, Median ([2]; Days 2/3, Lemborexant 10 mg): 20.00 ⅓ degree angle of arc
- Body Sway Upon Awakening in Morning, Change from Baseline, Mean (SD) ([2]; Days 30/31, Lemborexant 5 mg): −0.85 ⅓ degree angle of arc
- Body Sway Upon Awakening in Morning, Change from Baseline, Median ([2]; Days 30/31, Lemborexant 5 mg): −0.50 ⅓ degree angle of arc
- Body Sway Upon Awakening in Morning, Mean (SD) ([2]; Days 30/31, Lemborexant 5 mg): 25.10 ⅓ degree angle of arc
- Body Sway Upon Awakening in Morning, Median ([2]; Days 30/31, Lemborexant 5 mg): 20.50 ⅓ degree angle of arc
- Body Sway Upon Awakening in Morning, Change from Baseline, Mean (SD) ([2]; Days 30/31, Lemborexant 10 mg): 0.48 ⅓ degree angle of arc
- Body Sway Upon Awakening in Morning, Change from Baseline, Median ([2]; Days 30/31, Lemborexant 10 mg): 0.50 ⅓ degree angle of arc
- Body Sway Upon Awakening in Morning, Mean (SD) ([2]; Days 30/31, Lemborexant 10 mg): 22.76 ⅓ degree angle of arc
- Body Sway Upon Awakening in Morning, Median ([2]; Days 30/31, Lemborexant 10 mg): 18.00 ⅓ degree angle of arc
- effects on postural stability compared to placebo ([2]; Table 24): no significant effects on postural stability compared to placebo
- body sway ([2]; all lemborexant treatment groups, relative to baseline, placebo and zolpidem treatment groups (Table 24)): reduced
- Insomnia Severity Total Score (Items 1-7), Change from Study Baseline, Mean (SD) ([3]; Lemborexant 5 mg): −7.75 (5.474)
- Insomnia Severity Total Score (Items 1-7), Change from Study Baseline, Median ([3]; Lemborexant 5 mg): −7.00
- Insomnia Severity Total Score (Items 1-7), Mean (SD) ([3]; Lemborexant 5 mg): 11.24 (5.387)
- Insomnia Severity Total Score (Items 1-7), Median ([3]; Lemborexant 5 mg): 11.00
- Insomnia Severity Total Score (Items 1-7), Change from Study Baseline, Mean (SD) ([3]; Lemborexant 10 mg): −7.92 (5.894)
- Insomnia Severity Total Score (Items 1-7), Change from Study Baseline, Median ([3]; Lemborexant 10 mg): −7.00
- Insomnia Severity Total Score (Items 1-7), Mean (SD) ([3]; Lemborexant 10 mg): 11.11 (5.639)
- Insomnia Severity Total Score (Items 1-7), Median ([3]; Lemborexant 10 mg): 11.00
- mean insomnia severity index total score ([3]; lemborexant treatment groups, relative to baseline and the placebo treatment group (Table 22)): reduced
- mean subjective total sleep time ([4]; 10 mg, relative to baseline, placebo and zolpidem treatment groups (Table 21)): increased
- Subjective Total Sleep Time, Change from Study Baseline, Mean (SD) [4, 5]: 50.30 (60.065)
- Subjective Total Sleep Time, Mean (SD) [4, 5]: 322.66 (89.706)
- Subjective Total Sleep Time, Model-adjusted change from baseline [4, 5]: 51.14
- Subjective Total Sleep Time, Change from Study Baseline, Mean (SD) [4, 6]: 67.80 (71.134)
- Subjective Total Sleep Time, Mean (SD) [4, 6]: 332.92 (91.538)
- Subjective Total Sleep Time, Model-adjusted change from baseline [4, 6]: 66.59
- Subjective Total Sleep Time, Change from Study Baseline, Mean (SD) [4, 7]: 62.41 (68.555)
- Subjective Total Sleep Time, Mean (SD) [4, 7]: 334.22 (94.339)
- Subjective Total Sleep Time, Model-adjusted change from baseline [4, 7]: 64.22
- Subjective Total Sleep Time, Change from Study Baseline, Mean (SD) [4, 8]: 79.95 (81.211)
- Subjective Total Sleep Time, Mean (SD) [4, 8]: 343.68 (95.785)
- Subjective Total Sleep Time, Model-adjusted change from baseline [4, 8]: 78.47

Structure (SMILES): Cc1ccc(-c2nc3ccc(C)cn3c2CC(=O)N(C)C)cc1 [Zolpidem ER, zolpidem, reference compound]
- Return to Sleep Latency, LSM - Difference vs. Placebo ([1]; Zolpidem 6.25 mg): -21.0 min
- Return to Sleep Latency, Mean (SD) change from baseline ([1]; Zolpidem 6.25 mg): -21.2 min
- Return to Sleep Latency, Postdose ([1]; Zolpidem 6.25 mg): 19.6 min
- Body Sway Upon Awakening in Morning, Change from Study Baseline, Mean (SD) ([2]; Days 2/3, Zolpidem ER 6.25 mg): 4.07 ⅓ degree angle of arc
- Body Sway Upon Awakening in Morning, Change from Study Baseline, Median ([2]; Days 2/3, Zolpidem ER 6.25 mg): 2.50 ⅓ degree angle of arc
- Body Sway Upon Awakening in Morning, Mean (SD) ([2]; Days 2/3, Zolpidem ER 6.25 mg): 29.86 ⅓ degree angle of arc
- Body Sway Upon Awakening in Morning, Median ([2]; Days 2/3, Zolpidem ER 6.25 mg): 25.00 ⅓ degree angle of arc
- Body Sway Upon Awakening in Morning, Change from Baseline, Mean (SD) [2, 9]: 2.12 ⅓ degree angle of arc
- Body Sway Upon Awakening in Morning, Change from Baseline, Median [2, 9]: 2.50 ⅓ degree angle of arc
- Body Sway Upon Awakening in Morning, Mean (SD) [2, 9]: 27.65 ⅓ degree angle of arc
- Body Sway Upon Awakening in Morning, Median [2, 9]: 22.50 ⅓ degree angle of arc
- Insomnia Severity Total Score (Items 1-7), Change from Study Baseline, Mean (SD) ([3]; Zolpidem ER 6.25 mg): −8.26 (6.013)
- Insomnia Severity Total Score (Items 1-7), Change from Study Baseline, Median ([3]; Zolpidem ER 6.25 mg): −8.00
- Insomnia Severity Total Score (Items 1-7), Mean (SD) ([3]; Zolpidem ER 6.25 mg): 10.98 (5.452)
- Insomnia Severity Total Score (Items 1-7), Median ([3]; Zolpidem ER 6.25 mg): 11.00
- Subjective Total Sleep Time, Change from Study Baseline, Mean (SD) [4, 10]: 56.99 (62.880)
- Subjective Total Sleep Time, Mean (SD) [4, 10]: 325.64 (81.845)
- Subjective Total Sleep Time, Model-adjusted change from baseline [4, 10]: 57.71
- Subjective Total Sleep Time, Change from Study Baseline, Mean (SD) [4, 11]: 71.01 (76.574)
- Subjective Total Sleep Time, Mean (SD) [4, 11]: 340.20 (83.582)
- Subjective Total Sleep Time, Model-adjusted change from baseline [4, 11]: 71.04
